# Data taken from ChEMBL document CHEMBL1212693, “Dorsomorphin inhibits BMP signals required for embryogenesis and iron metabolism” (Nat Chem Biol, 2008).
# Active and inactive are the calls of the source. No cut-off for these calls is given here.
# What was measured:
# [1] = species: Danio rerio; assay: Inhibition of AMPK in zebrafish assessed as embryonic axis dorsalization at 400 uM treated at 3 hrs post-fertilization measured at 48 hrs; parameters: scale not given: the % may be the effect or the level left
# [2] = species: Danio rerio; assay: Inhibition of AMPK in zebrafish assessed as embryonic axis dorsalization at 200 uM treated at 3 hrs post-fertilization measured at 48 hrs; parameters: scale not given: the % may be the effect or the level left
# [3] = species: Danio rerio; assay: Inhibition of AMPK in zebrafish assessed as embryonic axis dorsalization at 100 uM treated at 3 hrs post-fertilization measured at 48 hrs; parameters: scale not given: the % may be the effect or the level left
# [4] = species: Danio rerio; assay: Inhibition of AMPK in zebrafish assessed as embryonic axis dorsalization at 40 uM treated at 3 hrs post-fertilization measured at 48 hrs; parameters: scale not given: the % may be the effect or the level left
# [5] = species: Danio rerio; assay: Inhibition of AMPK in zebrafish assessed as embryonic axis dorsalization at 20 uM treated at 3 hrs post-fertilization measured at 48 hrs; parameters: scale not given: the % may be the effect or the level left
# [6] = species: Danio rerio; assay: Inhibition of AMPK in zebrafish assessed as embryonic axis dorsalization at 4 uM treated at 3 hrs post-fertilization measured at 48 hrs; parameters: scale not given: the % may be the effect or the level left
# [7] = species: Danio rerio; assay: Toxicity in zebrafish assessed as survivability at 4 to 400 uM treated at 3 hrs post-fertilization measured at 48 hrs; type: organism-based; settings: in vivo
# [8] = system: Hep 3B2; assay: Inhibition of hepcidin mRNA expression in human Hep3B cells at 250 uM after 30 mins by qRT-PCR analysis; type: functional; settings: 0.5 h
# [9] = molecular target: AMP-activated protein kinase, AMPK (Homo sapiens) (UniProt P54646+O43741+P54619+Q9UGJ0+Q9Y478+Q13131+Q9UGI9); assay: Inhibition of AMPK-mediated hepcidin mRNA expression in BMP2-stimulated human Hep3B cells at 250 uM treated 30 mins before BMP2 challenge measured after 16 hrs by qRT-PCR analysis; type: cell-based; settings: Hep 3B2
Activity [1],Activity [2],Activity [3],Activity [4],Activity [5],Activity [6],inhibition [9],SMILES,Activity [7],inhibition at 250 µM [8]
0%,0%,0%,0%,0%,0%,,C=C1C(=O)O[C@H](CCCCCCCC)[C@H]1C(=O)O,Toxic,
,,,,,,inactive,Nc1ncnc2c1ncn2[C@@H]1O[C@H](CO)[C@@H](O)[C@@H]1O [VIDARABINE],,40%
